Literature values as cited in patent US20210356455A1, “SCREENING AGENTS CAPABLE OF INHIBITING PAIN AND/OR PRURITUS AND METHODS AND COMPOSITIONS FOR TREATING PAIN AND/OR PRURITUS USING SAID AGENTS” (President and Fellows of Harvard College, priority 2020, published 2021).
One block for each compound: values may come before it.

Legend:
[1] = target: T1, Mrgprd (MAS Related GPR Family Member D) (Homo sapiens, UniProt Q8TDS7); conditions: micromolar doses; cells expressing the receptor
[2] = target: T1, Mrgprd (MAS Related GPR Family Member D); conditions: cells expressing the receptor
[3] = target: Ntsr2 (Neurotensin Receptor 2) (Homo sapiens, UniProt O95665); conditions: binding and pharmacological studies
Ntsr2 (Neurotensin Receptor 2), sequence (O95665 whole entry, species assumed): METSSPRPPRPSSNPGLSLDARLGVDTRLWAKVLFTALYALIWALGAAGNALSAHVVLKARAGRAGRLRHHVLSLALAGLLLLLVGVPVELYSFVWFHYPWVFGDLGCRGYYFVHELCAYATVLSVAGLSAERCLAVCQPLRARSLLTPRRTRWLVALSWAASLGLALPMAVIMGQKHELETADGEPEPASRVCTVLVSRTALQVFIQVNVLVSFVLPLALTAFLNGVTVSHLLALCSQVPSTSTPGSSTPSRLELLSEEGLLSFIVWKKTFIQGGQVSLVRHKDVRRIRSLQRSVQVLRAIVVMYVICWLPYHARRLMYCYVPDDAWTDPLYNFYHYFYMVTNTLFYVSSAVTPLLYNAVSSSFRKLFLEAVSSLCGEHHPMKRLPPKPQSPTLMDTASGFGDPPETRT

[4] = target: T2, Mrgpra3 (Mas-related G-protein coupled receptor member A3) (Mus musculus, UniProt Q91WW3)
T2 sequence (Q91WW3 1-302): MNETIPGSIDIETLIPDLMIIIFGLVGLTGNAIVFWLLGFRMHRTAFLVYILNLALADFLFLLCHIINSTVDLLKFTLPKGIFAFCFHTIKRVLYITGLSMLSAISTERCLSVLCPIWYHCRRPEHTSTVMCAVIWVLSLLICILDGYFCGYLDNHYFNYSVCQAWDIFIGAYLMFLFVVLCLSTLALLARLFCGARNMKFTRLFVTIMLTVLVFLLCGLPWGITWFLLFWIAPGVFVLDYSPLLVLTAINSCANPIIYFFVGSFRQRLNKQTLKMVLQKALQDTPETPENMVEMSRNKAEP

T1 sequence (Q8TDS7 whole entry, species assumed): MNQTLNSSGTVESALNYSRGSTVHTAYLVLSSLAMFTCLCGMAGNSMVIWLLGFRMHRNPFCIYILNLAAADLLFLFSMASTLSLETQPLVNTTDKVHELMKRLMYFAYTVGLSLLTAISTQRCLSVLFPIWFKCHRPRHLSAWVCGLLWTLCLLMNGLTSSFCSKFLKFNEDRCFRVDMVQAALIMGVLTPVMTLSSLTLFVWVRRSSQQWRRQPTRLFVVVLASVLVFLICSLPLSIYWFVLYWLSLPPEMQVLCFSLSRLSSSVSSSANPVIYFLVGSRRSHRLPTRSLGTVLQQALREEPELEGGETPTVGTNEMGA

Ca(2+) influx [1]: specifically evoked Ca(2+) influx
Structure (SMILES): NCCC(=O)O [Beta-alanine, beta-alanine]
forskolin-stimulated cAMP production [2]: decreases forskolin-stimulated cAMP production

affinity for the receptor [3]: high affinity
Structure (SMILES): C[C@@H]1CN([C@H]2CC[C@](C#N)(c3ccc(F)cc3)CC2)CC[C@]1(C(=O)O)c1ccccc1 [levocabastine]

receptor activation [4]: Activated
Structure (SMILES): CCN(CC)CCCC(C)Nc1ccnc2cc(Cl)ccc12 (stereo not shown) [chloroquine]
